The results in this text go back to publication PMC6691761, “Potential multifunctional agents with anti-hepatoma and anti-inflammation properties by inhibiting NF-кB activation” (Journal of Enzyme Inhibition and Medicinal Chemistry, 2019).

Assay [1] deals with human lung carcinoma cells (A549). The assay is described as follows: Cytotoxicity, MTT assay, A549. Format: cell-based. From the text: (§1) Compounds 83–102 were screened against human neoplastic cell lines, such as human breast cancer cells (MCF-7), human colon cancer cells (HCT116), human lung carcinoma cells (A549), human gastric adenocarcinoma cells (SGC7901), human liver hepatocellular carcinoma cell line (HepG2), human cervical carcinoma cells (HeLa), human acute mononuclear granulocyte leukaemia (THP-1), and human normal hepatic cell line (LO2) using modified MTT assay. All the cells were obtained from the American Type Culture Collection (ATCC, Manassas, VA). The cells were cultured in DMEM or 1640. Positive controls (Doxorubicin (DOX) and Curcumin) and BAPs were initially dissolved in dimethyl sulphoxide (DMSO). Experimental concentration of DMSO was always 0.1% (v/v). The concentrations of BAPs and positive controls were 50, 20, 10, 5, 2.5, 1, 0.5, 0.1, 0.05, and 0.01 μg/mL.
(§2) The cells (1 × 10^4 cells/well) were seeded in a 96-well plate and incubated for 24 h. Cells treated with serial concentrations of drugs were incubated for another 24 h. After the media removed, 20 μL of MTT (5 mg/mL) solution was added and incubated for 4 h at 37 °C. The MTT solution was removed and then 150 μL of DMSO was added. The optical density was measured with a multi-well plate reader (TECAN, Mӓnnedorf, Switzerland) at 570 nm. The results are expressed as a decrease in the cell viability (%) in comparison to untreated controls. The concentration of each compound was examined in triplicate, and the IC50 values are expressed in Table 1.
Background: Formazan colour is commonly taken as a measure of viable cells.

Assay [2] relates to human cervical carcinoma cells (HeLa). The experiment in a line: Cytotoxicity, MTT assay, HeLa. Format: cell-based.
Source text: as §1, §2

Assay [3] relates to TNF-α expression in HepG2 xenografts. The experiment in a line: Immunohistochemistry staining of TNF-α in HepG2 xenografts. As to conditions: 96 5.0 mg/kg, DOX 1.0 mg/kg, versus model group. Format: in vivo, Balb/c nude mice. As to the method: (§3) The HepG2 cells xenografts were established using the Balb/c nude mice (female, 7-week-old, 17–19 g, n = 30) (Shanghai Laboratory Animal Center, Shanghai Shi, China) were used to investigate the anti-hepatoma effect of 96. Animal experiments were reviewed and approved by the Binzhou Medical University Experimental Animal Committee. Briefly, HepG2 cells (1 × 10^7/0.2 ml PBS/mouse) were inoculated subcutaneously. Three days after the inoculation, the mice were randomly divided into five groups: the saline treated group (Control), 96 (0.2 mg/kg) group, 96 (1.0 mg/kg) treated group, 96 (5.0 mg/kg) treated group, and DOX (1.0 mg/kg) treated group. 96 were dissolved in saline containing 1% of DMSO and administered intraperitoneally every 2 d for 20 days. DOX was also administered intraperitoneally every 2 d for 20 d. The body weight and HepG2 xenografts volumes were recorded from the day of treatment, and xenografts volumes were calculated using the equation: tumour volume = length×(width)[2]×π/6. At the end of the experiment, mice were sacrificed and the xenografts were obtained for western blotting, HE staining and immunohistochemistry staining.
(§4) The HepG2 xenografts tissues were embedded using the paraffin, and sectioned for HE staining and immunohistochemistry staining. HE staining was performed routinely. The immunohistochemistry staining carried out as following. […]

Assay [4] deals with human acute mononuclear granulocyte leukaemia (THP-1). The experiment in a line: Cytotoxicity, MTT assay, THP-1. Format: cell-based.
Source text: as §1, §2

Assay [5] concerns human normal hepatic cell line (LO2). The assay is described as follows: Toxicity to normal cells, MTT assay, LO2. Conditions: Homo sapiens, 24 h. Format: cell-based.
Source text: as §1, §2

In assay [6] the test system is HepG2 xenografts. The assay is described as follows: HE staining of HepG2 xenografts. Format: in vivo, Balb/c nude mice. As to the method: as §3
The HepG2 xenografts tissues were embedded using the paraffin, and sectioned for HE staining and immunohistochemistry staining. HE staining was performed routinely. The immunohistochemistry staining carried out as following. Briefly, the processed sections were incubated with the primary antibodies: Bcl-2 and TNF-α (NOVUS BIOLOGICALS) at 4 °C overnight. After washing, the anti-rabbit peroxidase-conjugated secondary antibody (Sigma-Aldrich, St. Louis, MO) was incubated for 1 h at RT. After washing with PBS, the cells were visualized using the 3,3'-diaminobenzidine (DAB) solution under the light microscope. The cell images were taken using a light microscopy (Olympus, Tokyo, Japan).

The subject of assay [7] is Bcl-2 expression in HepG2 xenografts. The assay is described as follows: Immunohistochemistry staining of Bcl-2 in HepG2 xenografts. Format: in vivo, Balb/c nude mice. As to conditions: 96 5.0 mg/kg, DOX 1.0 mg/kg, versus model group. As to the method: as §3, §4
Assay [8] concerns human breast cancer cells (MCF-7). The assay is described as follows: Cytotoxicity, MTT assay, MCF-7. Format: cell-based.
Source text: as §1, §2

The test system of assay [9] is HepG2 xenografts. The experiment in a line: HepG2 xenografts growth in nude mice. Format: in vivo, Balb/c nude mice. Conditions: 1.0 mg/kg intraperitoneally every 2 d for 20 days. The protocol: as §3
The subject of assay [10] is human gastric adenocarcinoma cells (SGC7901). The experiment in a line: Cytotoxicity, MTT assay, SGC7901. Format: cell-based.
Source text: as §1, §2

In assay [11] the test system is human liver hepatocellular carcinoma cell line (HepG2). The assay is described as follows: Cytotoxicity, MTT assay, HepG2. Format: cell-based.
Source text: as §1, §2

The subject of assay [12] is human colon cancer cells (HCT116). The experiment in a line: Cytotoxicity, MTT assay, HCT116. Format: cell-based.
Source text: as §1, §2

Where [13] appears, read: quotient of IC50 towards LO2 cells.

A word on the IC50: it is the concentration at which inhibition is half-maximal. On to `COc1cccc2c1C(=O)c1c(O)c3c(c(O)c1C2=O)C[C@@](O)(C(=O)CO)C[C@@H]3O[C@H]1C[C@H](N)[C@H](O)[C@H](C)O1` [DOX, Doxorubicin, reference compound], for which the IC50 in [1] (Homo sapiens, A549, 24 h, MTT, 24 h) was 3.4 ± 0.4 µM; in [2] (Homo sapiens, HeLa, MTT, 24 h), 7 ± 0.3 µM; in assay [4] (Homo sapiens, THP-1, 24 h, MTT, 24 h), 9.5 ± 0.8 µM; in [5], 4.7 ± 0.7 µM; in assay [8] (Homo sapiens, MCF7, MTT, 24 h) it was 2.8 ± 0.7 µM; in assay [10] (Homo sapiens, SGC-7901, MTT, 24 h), 3.3 ± 0.5 µM. For the same compound, the IC50 in [11] (Homo sapiens, HepG2, 24 h, MTT, 24 h) stood at 1.2 ± 0.1 µM; in assay [12] (Homo sapiens, HCT-116, MTT, 24 h), 3.5 ± 0.1 µM. In assay [1] (setting [13]), the “A549 SI (selectivity index)” value is 1.4. Also, the “HeLa SI (selectivity index)” value in [2] (setting [13]) came out at 0.7. Besides, the “TNF-α expression, immunohistochemistry” value in [3] is “significantly reduced”. Besides, in [4] (setting [13]), the “THP-1 SI (selectivity index)” value was 0.5. Moreover, the “Fracted cells, HE staining” value in [6] (96 5.0 mg/kg, DOX 1.0 mg/kg) was “a plenty of fracted cells”. Moreover, in assay [6] (HepG2 xenografts, versus model group), the “Histopathological change of cell nucleus, HE staining” value is “made the HepG2 cell nucleus wrinkled”. Also, in [7], the “Bcl-2 expression, immunohistochemistry” value is reported as “significantly reduced”. Further, the “MCF-7 SI (selectivity index)” value in assay [8] (setting [13]) was 1.7. Moreover, the “Growth of HepG2 xenografts” value in assay [9] is given as “significantly inhibited the growth of HepG2 xenografts”. Also, the “SGC7901 SI (selectivity index)” value in assay [10] (setting [13]) is 1.4. Besides, the “HepG2 SI (selectivity index)” value in assay [11] (setting [13]) is recorded as 3.9. For the same compound, the “HCT116 SI (selectivity index)” value in [12] (setting [13]) turned out to be 1.3.
